Measured values: US5756765A, “2- (2-Substituted pyrrolidin-4-yl) thio-carbapenem derivatives” (Chong Kun Dang Corp., priority 1992, dated 1998)
Converted amounts (≈) assume the structure as drawn. Like-named read-outs stand apart in the source and are kept apart here.

What was measured:
[1] = tested on: Pseudomonas aeruginosa 1592E; assay: Test 1: In vitro antibacterial activity (MIC), Mueller Hinton Agar dilution; type: cell-based; settings: read-out: Minimal Inhibitory Concentration (MIC)
Experimental: (§1) Test 1: In Vitro Antibacterial Activity Test
(§2) The compounds of Examples 1,2,3 and 4 according to the present invention were used as a test compound and imipenem was used as a comparative compound.
(§3) The test compounds and comparative compound were gradually diluted in Mueller Hinton Agar(MHA) medium. Test strains as listed in the following table were inoculated into the medium in an amount of 10^6 viable cells/ml and then incubated at 37° C. for 18 hours. Then, MIC value was measured and expressed in terms of μg/ml.

[2] = tested on: Enterobacter cloacae 1321E; assay: as above; type: cell-based; settings: read-out: Minimal Inhibitory Concentration (MIC)
Experimental: as §1, §2, §3

[3] = tested on: Klebsiella oxytoca 1082E; assay: as above; type: cell-based; settings: read-out: Minimal Inhibitory Concentration (MIC)
Experimental: as §1, §2, §3

[4] = tested on: Pseudomonas aeruginosa 9027; assay: as above; type: cell-based; settings: read-out: Minimal Inhibitory Concentration (MIC)
Experimental: as §1, §2, §3

[5] = tested on: Klebsiella aerogenes 1522E; assay: as above; type: cell-based; settings: read-out: Minimal Inhibitory Concentration (MIC)
Experimental: as §1, §2, §3

[6] = tested on: Staphylococcus aureus SG 511; assay: as above; type: cell-based; settings: read-out: Minimal Inhibitory Concentration (MIC)
Experimental: as §1, §2, §3

[7] = tested on: Salmonella typhimurium; assay: as above; type: cell-based; settings: Salmonella enterica, read-out: Minimal Inhibitory Concentration (MIC)
Experimental: as §1, §2, §3

[8] = tested on: Escherichia coil TEM; assay: as above; type: cell-based; settings: 18 h, read-out: Minimal Inhibitory Concentration (MIC)
Experimental: as §1, §2, §3

[9] = tested on: Escherichia coli DC 2; assay: as above; type: cell-based; settings: read-out: Minimal Inhibitory Concentration (MIC)
Experimental: as §1, §2, §3

[10] = Test 2: Stability test against kidney dehydrogenase DHP-I; type: in vitro ADME, pig; settings: kidney dhp-i enzyme; for remaining at 5 min / remaining at 10 min / remaining at 20 min / remaining at 40 min / remaining at 80 min / remaining at 2 h: pig kidney enzyme, 10 mM phosphate buffer, 37° C., read-out: percentage of the remaining amount (stability on DHP-I enzyme); for remaining at 2 h: 120 minutes
Experimental: Test 2: Stability Test Against kidney Dehydrogenase DHP-I
Each of the novel compounds of Examples 1,2,3 and 4 of the present invention and the comparative compound imipenem was dissolved in 10 mM phosphate buffer and the resulting solution was mixed with dehydrogenase enzyme solution extracted from pig kidney in a ratio of equivalent amounts. The resulting mixture was incubated at 37° C. for 2 hours, during which the decomposition degree of the compound was measured. The result thereof was given in the following Table 2 in terms of percentage of the remaining amount on the basis of the initially added amount of the compound.

[11] = substances produced by DHP-I enzyme decomposition; cited from earlier work
[12] = tested on: Pseudomonas aeruginosa; settings: compared with thienamycin; cited from earlier work
[13] = tested on: various bacteria including beta-lactamase producing strains; settings: compared with thienamycin; cited from earlier work
[14] = tested on: DHP-I enzyme present in human kidney; settings: cited from earlier work
[15] = tested on: dehydrogenase-1(DHP-I enzyme) present in kidney; settings: cited from earlier work
[16] = clinically administered; cited from earlier work
[17] = tested on: gram-positive and gram-negative bacteria; settings: cited from earlier work
[18] = Pseudomonas aeruginosa 1592E, 10^6 viable cells/ml, 37° C., 18 hours
[19] = Enterobacter cloacae 1321E, 10^6 viable cells/ml, 37° C., 18 hours
[20] = Klebsiella oxytoca 1082E, 10^6 viable cells/ml, 37° C., 18 hours
[21] = Pseudomonas aeruginosa 9027, 10^6 viable cells/ml, 37° C., 18 hours
[22] = Klebsiella aerogenes 1522E, 10^6 viable cells/ml, 37° C., 18 hours
[23] = SG511, Staphylococcus aureus SG 511, 10^6 viable cells/ml, 37° C., 18 hours
[24] = Salmonella typhimurium, 10^6 viable cells/ml, 37° C., 18 hours
[25] = DC2, Escherichia coli DC 2, 10^6 viable cells/ml, 37° C., 18 hours

Row | Structure (SMILES) | MIC [1, 18] [µg/mL] | MIC [2, 19] [µg/mL] | MIC [3, 20] [µg/mL] | MIC [4, 21] [µg/mL] | MIC [5, 22] [µg/mL] | MIC [6, 23] [µg/mL] | MIC [7, 24] [µg/mL] | MIC [8] [µg/mL] | MIC [9, 25] [µg/mL] | remaining at 5 min [10] [%] | remaining at 10 min [10] [%] | remaining at 20 min [10] [%] | remaining at 40 min [10] [%] | remaining at 80 min [10] [%] | remaining at 2 h [10] [%] | further results
1 | C[C@@H](O)[C@H]1C(=O)N2C(C(=O)O)=C(S[C@@H]3CN[C@H](CSCCC(=O)NCC#N)C3)[C@H](C)[C@H]12 [Example 2, (1R,5S,6S)-2-[(2S,4S)-2-{(cyanomethylcarbamoyl)ethylmercaptomethyl}pyrrolidin-4-yl]thio-6-[(R)-1-hydroxyethyl]1-methyl-1-carbapen-2-em-3-carboxylic acid] | 0.78 (≈ 1.66 µM) | 0.05 (≈ 0.107 µM) | 0.2 (≈ 0.427 µM) | 0.78 (≈ 1.66 µM) | 0.1 (≈ 0.213 µM) | 0.05 (≈ 0.107 µM) | 0.1 (≈ 0.213 µM) | 0.05 (≈ 0.107 µM) | 0.1 (≈ 0.213 µM) | 100 | 99.4 | 98.6 | 97.2 | 96.3 | 96.3 | 
2 | C[C@@H](O)[C@H]1C(=O)N2C(C(=O)O)=C(S[C@@H]3CN[C@H](CSCCC(=O)NCC(N)=O)C3)[C@H](C)[C@H]12 [Example 4, (1R,5S,6S)-2-[(2S,4S)-2-{(2-carbamoylmethylcarbamoyl)ethylmercaptomethyl}pyrrolidin-4-yl]thio-6-[(R)-1-hydroxyethyl]-1-methyl-1-carbapen-2-em-3-carboxylic acid] | 0.78 (≈ 1.6 µM) | 0.05 (≈ 0.103 µM) | 0.2 (≈ 0.411 µM) | 0.1 (≈ 0.206 µM) | 0.1 (≈ 0.206 µM) | 0.05 (≈ 0.103 µM) | 0.2 (≈ 0.411 µM) | 0.1 (≈ 0.206 µM) | 0.1 (≈ 0.206 µM) | 100 | 99.8 | 99 | 99.8 | 98.8 | 98.8 | 
3 | C[C@@H](O)[C@H]1C(=O)N2C(C(=O)O)=C(S[C@@H]3CN[C@H](CSCCC(=O)NCCO)C3)[C@H](C)[C@H]12 [Example 3, (1R,5S,6S)-2-[(2S,4S)-2-{(hydroxyethylcarbamoyl)ethylmercaptomethyl}pyrrolidin-4-yl]thio-6-[(R)-1-hydroxyethyl]-1-methyl-1-carbapen-2-em-3-carboxylicacid] | 0.39 (≈ 0.823 µM) | 0.05 (≈ 0.106 µM) | 0.2 (≈ 0.422 µM) | 0.39 (≈ 0.823 µM) | 0.1 (≈ 0.211 µM) | 0.05 (≈ 0.106 µM) | 0.1 (≈ 0.211 µM) | 0.05 (≈ 0.106 µM) | 0.1 (≈ 0.211 µM) | 99.7 | 99.2 | 98.9 | 98 | 97.2 | 97 | 
4 | C[C@@H](O)[C@H]1C(=O)N2C(C(=O)O)=C(SCCN=CN)C[C@H]12 [Imipenem, (5R, 6S, 8R)-3-[[2-(formimidoylamino)ethyl]thio]-6-(1-hydroxyethyl)-7-oxo-1-azabicyclo[3.2.0]hept-ene-2-carboxylic acid hydrate, reference compound] |  |  |  |  |  |  |  | 0.2 |  | 99.2 | 97.9 | 94.3 | 87.7 | 77 | 66.6 | renal toxicity, in words [11]: serious renal toxicity; MIC ([1]; Pseudomonas aeruginosa, 1592E, 18 h): 0.78 µg/mL; MIC ([2]; Enterobacter cloacae, 1321E, 18 h): 0.2 µg/mL; MIC ([3]; Klebsiella oxytoca, 1082E, 18 h): 0.39 µg/mL; MIC ([4]; Pseudomonas aeruginosa, 9027, 18 h): 0.78 µg/mL; MIC ([5]; Klebsiella aerogenes, 1522E, 18 h): 0.78 µg/mL; MIC ([6]; Staphylococcus aureus, SG511, 18 h): 0.1 µg/mL; MIC ([7]; TYPHIMURIUM, 18 h): 0.78 µg/mL; MIC ([9]; Escherichia coli, DC2, 18 h): 0.78 µg/mL; antibacterial activity, times stronger than that of thienamycin [12]: 2 to 4 times; antibacterial activity relative to thienamycin, in words [13]: equivalent to, or higher than, that of thienamycin; metabolised at 2 h ([10]; pig, within about 2 hours from beginning of mixing incubation, read-out: decomposition ("was composed by about 40%")): ~40%; decomposition by DHP-I, in words [14]: can be readily decomposed by DHP-I enzyme present in human kidney
5 | C[C@@H](O)[C@H]1C(=O)N2C(C(=O)O)=C(S[C@@H]3CN[C@H](CSCC(=O)NCC#N)C3)[C@H](C)[C@H]12 [Example 1, (1R,5S,6S)-2-[(2S,4S)-2-{(cyanomethylcarbamoyl)methylmercaptomethyl}pyrrolidin-4-yl]thio-6-[(R)-1-hydroxyethyl]-1-methyl-1-carbapen-2-em-3-carboxylicacid] | 0.78 (≈ 1.72 µM) | 0.05 (≈ 0.11 µM) | 0.2 (≈ 0.44 µM) | 0.1 (≈ 0.22 µM) | 0.2 (≈ 0.44 µM) | 0.05 (≈ 0.11 µM) | 0.2 (≈ 0.44 µM) | 0.1 (≈ 0.22 µM) | 0.1 (≈ 0.22 µM) | 99.7 | 99.4 | 99.1 | 98.1 | 97.5 | 97.2 | 
6 | C[C@@H](O)[C@H]1C(=O)N2C(C(=O)O)=C(SCCN)CC12 (stereo partly drawn) [thienamycin, [5R-[5α, 6α(R*)]]-3-[(2-aminoethyl)-thio]-6-(1-hydroxyethyl)-7-oxo-1-azabicyclo[3.2.0]-hept-2-ene-2-carboxylic acid] |  |  |  |  |  |  |  |  |  |  |  |  |  |  |  | decomposition in vivo by DHP-I, in words [15]: can be readily decomposed in vivo by dehydrogenase-1(DHP-I enzyme) present in kidney; recovery rate in urine [16]: extremely low; antimicrobial activity, in words [17]: broad and potent antimicrobial activity against gram-positive and gram-negative bacteria
